ChEMBL document CHEMBL1147516, “Synthesis and evaluation of lasonolide A analogues” (2004)

Key:
Type in all cases: functional
Settings in all cases: Homo sapiens
HCT-116 = assay: Growth inhibition against HCT116 cell line was evaluated
NCI-H46 = assay: Growth inhibition against NCI-H460 cell line was evaluated
A549 = assay: Growth inhibition against A549 cell line was evaluated

Row | Structure (SMILES) | GI50 (HCT-116) [nM] | GI50 (NCI-H46) [nM] | GI50 (A549) [nM]
1 | C=C(CCC(C)C)COC(=O)[C@H](O)C/C=C\C[C@@H]1O[C@@H]2/C=C/C/C=C/C(C)=C\[C@@H]3C[C@@H](O)C[C@H](C/C=C/C=C/C(=O)O[C@H](C2)[C@@]1(C)CO)O3 | 45 | 65 | 100
2 | C=C(CCC(C)C)COC(=O)[C@H](O)C/C=C\C[C@@H]1O[C@@H]2/C=C/C/C=C/C(C)=C\[C@H]3O[C@@H](C/C=C/C=C/C(=O)O[C@H](C2)[C@@]1(C)CO)C[C@H](O)[C@H]3C [LASONOLIDE A] | 3 | < 3 | 15
3 | CCOC(=O)[C@H](O)C/C=C\C[C@@H]1O[C@@H]2/C=C/C/C=C/C(C)=C\[C@H]3O[C@@H](C/C=C/C=C/C(=O)O[C@H](C2)[C@@]1(C)CO)C[C@H](O)[C@H]3C [LASONOLIDE E] | 100 | 15 | 7

Next, values leading:

Row | GI50 (HCT-116) [nM] | GI50 (NCI-H46) [nM] | GI50 (A549) [nM] | Structure (SMILES)
4 | 190 | 170 | 200 | CCCCCCCCCCCCOC(=O)[C@H](O)C/C=C\C[C@@H]1O[C@@H]2/C=C/C/C=C/C(C)=C\[C@H]3O[C@@H](C/C=C/C=C/C(=O)O[C@H](C2)[C@@]1(C)CO)C[C@H](O)[C@H]3C
5 | 1800 | 1000 | 800 | C=C(CCC(C)C)COC(=O)[C@H](O)C/C=C\C[C@@H]1O[C@@H]2/C=C/C/C=C/C(C)=C\[C@H]3O[C@@H](C/C=C/C=C/C(=O)O[C@H](C2)[C@@]1(C)CCO)C[C@H](O)[C@H]3C
